The record followed here is US20250186437A1, “CARBOLINE COMPOUNDS AND USE THEREOF” (PTC Therapeutics, Inc., priority 2021, published 2025).

This assay concerns MOLM-13 cells. The assay can be described thus: MOLM-13 Cell Proliferation Assay (indicator of DHODH inhibition). The assay is classed as cell-based. The following applies: Homo sapiens, 72 Hours of culture, CellTiter-Glo, no uridine. The method, boiled down:
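Low-passage MOLM-13 cells (10^4/well) in RPMI 1640 + 10% FBS exposed to compound (0.5% DMSO final) for 72 h at 37 °C, 5% CO2. Viability read by CellTiter-Glo luminescence; growth reflects de novo pyrimidine synthesis dependent on DHODH.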
(Cellular ATP, detected with luciferase, serves as a proxy for viable cell number.)
By IC50 is commonly meant the midpoint of a concentration-inhibition curve. `FC(F)(F)c1ccnc(N2CCc3c([nH]c4ccc(Cl)c(Br)c34)C2c2ccc(Cl)cc2)n1` (stereo not drawn) [Compound 247, 5-bromo-6-chloro-1-(4-chlorophenyl)-2-[4-(trifluoromethyl)pyrimidin-2-yl]-2,3,4,9-tetrahydro-1H-pyrido[3,4-b]indole]: inhibition was half-maximal at 1.8 nM (IC50).
`Cc1nc(N2CCc3c([nH]c4cc(F)c(Cl)cc34)C2c2ccc(CCCCO)cc2)nc(C)c1F` (stereo not drawn) [Compound 249, 4-{4-[6-chloro-7-fluoro-2-(5-fluoro-4,6-dimethylpyrimidin-2-yl)-2,3,4,9-tetrahydro-1H-pyrido[3,4-b]indol-1-yl]phenyl}butan-1-ol] registered an IC50 of 2.2 nM.
The figure for `Oc1cc2[nH]c3c(c2cc1Cl)CCN(c1nccc(C(F)(F)F)n1)C3c1ccc(Cl)cc1` (stereo not drawn) [Compound 250, 6-chloro-1-(4-chlorophenyl)-2-[4-(trifluoromethyl)pyrimidin-2-yl]-2,3,4,9-tetrahydro-1H-pyrido[3,4-b]indol-7-ol] is 86.1 nM; for `FC(F)(F)c1ccnc(N2CCc3c([nH]c4ccc(Cl)cc34)C2c2cnc(N3CCOCC3)nc2)n1` (stereo not drawn) [Compound 251, 6-chloro-1-[2-(morpholin-4-yl)pyrimidin-5-yl]-2-[4-(trifluoromethyl)pyrimidin-2-yl]-2,3,4,9-tetrahydro-1H-pyrido[3,4-b]indole] it is 2 nM; for `Oc1c(F)cccc1C1c2[nH]c3ccc(Cl)cc3c2CCN1c1nccc(C(F)(F)F)n1` (stereo not drawn) [Compound 252, 2-{6-chloro-2-[4-(trifluoromethyl)pyrimidin-2-yl]-2,3,4,9-tetrahydro-1H-pyrido[3,4-b]indol-1-yl}-6-fluorophenol] it is 2 nM.
Consider `Oc1cccc(C2c3[nH]c4ccc(Cl)cc4c3CCN2c2nccc(C(F)(F)F)n2)c1F` (stereo not drawn) [Compound 256, 3-{6-chloro-2-[4-(trifluoromethyl)pyrimidin-2-yl]-2,3,4,9-tetrahydro-1H-pyrido[3,4-b]indol-1-yl}-2-fluorophenol], for which the IC50 came out at 3.6 nM.
Under `Cc1ccc(C2c3[nH]c4ccc(Cl)cc4c3CCN2c2nccc(C(F)(F)F)n2)c(O)c1` (stereo not drawn) [Compound 257, 2-{6-chloro-2-[4-(trifluoromethyl)pyrimidin-2-yl]-2,3,4,9-tetrahydro-1H-pyrido[3,4-b]indol-1-yl}-5-methylphenol] stands 1.3 nM.
Under `Cc1ccc(C2c3[nH]c4ccc(Cl)cc4c3CCN2c2nccc(C(F)(F)F)n2)cc1O` (stereo not drawn) [Compound 258, 5-{6-chloro-2-[4-(trifluoromethyl)pyrimidin-2-yl]-2,3,4,9-tetrahydro-1H-pyrido[3,4-b]indol-1-yl}-2-methylphenol] stands 28.3 nM; under `Cc1cccc(C2c3[nH]c4ccc(Cl)cc4c3CCN2c2nccc(C(F)(F)F)n2)c1F` (stereo not drawn) [Compound 259, 6-chloro-1-(2-fluoro-3-methylphenyl)-2-[4-(trifluoromethyl)pyrimidin-2-yl]-2,3,4,9-tetrahydro-1H-pyrido[3,4-b]indole], 1 nM; under `FC(F)(F)c1ccnc(N2CCc3c([nH]c4ccc(Cl)cc34)C2c2ccc(-n3ccnc3)cc2)n1` (stereo not drawn) [Compound 260, 6-chloro-1-[4-(1H-imidazol-1-yl)phenyl]-2-[4-(trifluoromethyl)pyrimidin-2-yl]-2,3,4,9-tetrahydro-1H-pyrido[3,4-b]indole], 6.3 nM.
With `FC(F)(F)c1ccnc(N2CCc3c([nH]c4ccc(Cl)cc34)C2c2ccc(-n3cccn3)cc2)n1` (stereo not drawn) [Compound 261, 6-chloro-1-[4-(1H-pyrazol-1-yl)phenyl]-2-[4-(trifluoromethyl)pyrimidin-2-yl]-2,3,4,9-tetrahydro-1H-pyrido[3,4-b]indole], the IC50 was 1.2 nM.
As for `FC(F)(F)c1ccnc(N2CCc3c([nH]c4ccc(Cl)cc34)C2c2ccc(N3CCOCC3)cc2)n1` (stereo not drawn) [Compound 262, 6-chloro-1-[4-(morpholin-4-yl)phenyl]-2-[4-(trifluoromethyl)pyrimidin-2-yl]-2,3,4,9-tetrahydro-1H-pyrido[3,4-b]indole], the IC50 was 1.3 nM.
For `Fc1ccc(C2c3[nH]c4ccc(Cl)cc4c3CCN2c2nccc(C(F)(F)F)n2)c(F)c1F` (stereo not drawn) [Compound 263, 6-chloro-2-[4-(trifluoromethyl)pyrimidin-2-yl]-1-(2,3,4-trifluorophenyl)-2,3,4,9-tetrahydro-1H-pyrido[3,4-b]indole], 2.5 nM corresponded to half-maximal inhibition (IC50).
The figure for `Cc1ccc(C2c3[nH]c4ccc(Cl)c([N+](=O)[O-])c4c3CCN2c2nccc(C(F)(F)F)n2)c(F)c1F` (stereo not drawn) [Compound 266, 6-chloro-1-(2,3-difluoro-4-methylphenyl)-5-nitro-2-[4-(trifluoromethyl)pyrimidin-2-yl]-2,3,4,9-tetrahydro-1H-pyrido[3,4-b]indole] is 1.3 nM; for `Fc1cc(Cl)ccc1C1c2[nH]c3ccc(Cl)cc3c2CCN1c1nccc(C(F)(F)F)n1` (stereo not drawn) [Compound 267, 6-chloro-1-(4-chloro-2-fluorophenyl)-2-[4-(trifluoromethyl)pyrimidin-2-yl]-2,3,4,9-tetrahydro-1H-pyrido[3,4-b]indole] it is 2.7 nM.
In turn, `Fc1cc(Br)ccc1C1c2[nH]c3ccc(Cl)cc3c2CCN1c1nccc(C(F)(F)F)n1` (stereo not drawn) [Compound 268, 1-(4-bromo-2-fluorophenyl)-6-chloro-2-[4-(trifluoromethyl)pyrimidin-2-yl]-2,3,4,9-tetrahydro-1H-pyrido[3,4-b]indole] came in with an IC50 of 0.2 nM.
For the compound `FC(F)(F)c1ccnc(N2CCc3c([nH]c4ccc(Cl)cc34)C2c2ccc(-n3cnnc3)cc2)n1` (stereo not drawn) [Compound 269, 6-chloro-1-[4-(4H-1,2,4-triazol-4-yl)phenyl]-2-[4-(trifluoromethyl)pyrimidin-2-yl]-2,3,4,9-tetrahydro-1H-pyrido[3,4-b]indole], half-maximal inhibition (IC50) was put at 98.2 nM.
`Fc1c(Br)ccc(C2c3[nH]c4ccc(Cl)cc4c3CCN2c2nccc(C(F)(F)F)n2)c1F` (stereo not drawn) [Compound 270, 1-(4-bromo-2,3-difluorophenyl)-6-chloro-2-[4-(trifluoromethyl)pyrimidin-2-yl]-2,3,4,9-tetrahydro-1H-pyrido[3,4-b]indole] yielded an IC50 of 0.3 nM.
The figure for `Fc1cc(-n2ccnc2)ccc1C1c2[nH]c3ccc(Cl)cc3c2CCN1c1ncccn1` (stereo not drawn) [Compound 274, 6-chloro-1-[2-fluoro-4-(1H-imidazol-1-yl)phenyl]-2-(pyrimidin-2-yl)-2,3,4,9-tetrahydro-1H-pyrido[3,4-b]indole] is 58.5 nM.
Take `Fc1cc(-n2ccnc2)ccc1C1c2[nH]c3ccc(Cl)cc3c2CCN1c1nccc(C(F)(F)F)n1` (stereo not drawn) [Compound 275, 6-chloro-1-[2-fluoro-4-(1H-imidazol-1-yl)phenyl]-2-[4-(trifluoromethyl)pyrimidin-2-yl]-2,3,4,9-tetrahydro-1H-pyrido[3,4-b]indole]: half-maximal inhibition (IC50) required 7.3 nM.
With `Cc1cc(O)c2[nH]c3c(c2c1)CCN(c1nccc(C(F)(F)F)n1)C3c1ccc(C)c(F)c1F` (stereo not drawn) [Compound 276, 1-(2,3-difluoro-4-methylphenyl)-6-methyl-2-[4-(trifluoromethyl)pyrimidin-2-yl]-2,3,4,9-tetrahydro-1H-pyrido[3,4-b]indol-8-ol], the 50% inhibitory concentration (IC50) stood at 0.6 nM.
Take `Fc1cc(N2CCOCC2)ccc1C1c2[nH]c3ccc(Cl)cc3c2CCN1c1nccc(C(F)(F)F)n1` (stereo not drawn) [Compound 277, 6-chloro-1-[2-fluoro-4-(morpholin-4-yl)phenyl]-2-[4-(trifluoromethyl)pyrimidin-2-yl]-2,3,4,9-tetrahydro-1H-pyrido[3,4-b]indole]: the half-maximal inhibitory concentration (IC50) worked out at 5.4 nM.
In turn, `Fc1c(C2c3[nH]c4ccc(Cl)cc4c3CCN2c2nccc(C(F)(F)F)n2)ccc(N2CCOCC2)c1F` (stereo not drawn) [Compound 279, 6-chloro-1-[2,3-difluoro-4-(morpholin-4-yl)phenyl]-2-[4-(trifluoromethyl)pyrimidin-2-yl]-2,3,4,9-tetrahydro-1H-pyrido[3,4-b]indole] gave an IC50 of 5.1 nM.
Under `CCCCOC(=O)c1ccnc(N2CCc3c([nH]c4ccc(Cl)cc34)C2c2ccc(C)cc2)n1` (stereo not drawn) [Compound 280, butyl 2-[6-chloro-1-(4-methylphenyl)-1,3,4,9-tetrahydro-2H-pyrido[3,4-b]indol-2-yl]pyrimidine-4-carboxylate] stands 4.1 nM; under `CCCCOC(=O)c1ccnc(N2CCc3c([nH]c4ccc(Cl)cc34)C2c2ccc(C)c(F)c2F)n1` (stereo not drawn) [Compound 281, butyl 2-[6-chloro-1-(2,3-difluoro-4-methylphenyl)-1,3,4,9-tetrahydro-2H-pyrido[3,4-b]indol-2-yl]pyrimidine-4-carboxylate], 1.4 nM.
Under `Cc1nc(C)nc(N2CCc3c([nH]c4ccc(Cl)cc34)C2c2ccc(Br)c(F)c2F)n1` (stereo not drawn) [Compound 283, 1-(4-bromo-2,3-difluorophenyl)-6-chloro-2-(4,6-dimethyl-1,3,5-triazin-2-yl)-2,3,4,9-tetrahydro-1H-pyrido[3,4-b]indole] stands 0.6 nM.
Under `Fc1c(C2c3[nH]c4ccc(Cl)cc4c3CCN2c2nccc(C(F)(F)F)n2)ccc(-n2ccnc2)c1F` (stereo not drawn) [Compound 285, 6-chloro-1-[2,3-difluoro-4-(1H-imidazol-1-yl)phenyl]-2-[4-(trifluoromethyl)pyrimidin-2-yl]-2,3,4,9-tetrahydro-1H-pyrido[3,4-b]indole] stands 2.8 nM; under `Cc1ccc(C2c3[nH]c4ccc(Cl)cc4c3CCN2c2nc(C)cc(C)n2)cc1` (stereo not drawn) [Compound 286, 6-chloro-2-(4,6-dimethylpyrimidin-2-yl)-1-(4-methylphenyl)-2,3,4,9-tetrahydro-1H-pyrido[3,4-b]indole], 4.1 nM; under `Cc1ccc(C2c3[nH]c4ccc(-n5nccn5)cc4c3CCN2c2nccc(C(F)(F)F)n2)cc1` (stereo not drawn) [Compound 287, 1-(4-methylphenyl)-6-(2H-1,2,3-triazol-2-yl)-2-[4-(trifluoromethyl)pyrimidin-2-yl]-2,3,4,9-tetrahydro-1H-pyrido[3,4-b]indole], 2.9 nM.
`Cc1nc(Cl)nc(N2CCc3c([nH]c4ccc(Cl)cc34)C2c2cnc(N3CCOCC3)nc2)n1` (stereo not drawn) [Compound 289, 6-chloro-2-(4-chloro-6-methyl-1,3,5-triazin-2-yl)-1-[2-(morpholin-4-yl)pyrimidin-5-yl]-2,3,4,9-tetrahydro-1H-pyrido[3,4-b]indole]: inhibition was half-maximal at 27.1 nM (IC50).
